Measured values as given in the NIST ThermoML archive (doi:10.1016/j.jct.2012.08.004).
“And” between values parts separate entries of the source, which are not always exact repeats. Identical values can stand only once. ± gives the expanded uncertainty stated by the source.

Conditions: Crystal, Calculated from knudsen effusion weight loss

Cc1cc(=O)[nH]c(=S)[nH]1 [6-methyl-2-thiouracil]
Conditions | vapor or sublimation pressure
421.16 K | 0.000106 ± 1.1e-05 kPa and 9.78e-05 ± 1e-05 kPa
423.15 K | 0.0001239 ± 1.3e-05 kPa and 0.0001238 ± 1.3e-05 kPa and 0.0001199 ± 1.3e-05 kPa
425.17 K | 0.000145 ± 1.5e-05 kPa and 0.000136 ± 1.4e-05 kPa and 0.0001411 ± 1.5e-05 kPa
427.16 K | 0.0001623 ± 1.7e-05 kPa and 0.0001711 ± 1.8e-05 kPa and 0.0001818 ± 1.9e-05 kPa
429.17 K | 0.0002135 ± 2.3e-05 kPa and 0.0002 ± 2.1e-05 kPa and 0.0002154 ± 2.3e-05 kPa
431.16 K | 0.0002301 ± 2.7e-05 kPa and 0.0002471 ± 2.6e-05 kPa
431.19 K | 0.0002525 ± 2.7e-05 kPa and 0.0002434 ± 2.6e-05 kPa and 0.0002473 ± 2.6e-05 kPa
433.2 K | 0.0002894 ± 3.1e-05 kPa and 0.0002713 ± 2.9e-05 kPa and 0.0002913 ± 3.1e-05 kPa
435.22 K | 0.0003418 ± 3.6e-05 kPa and 0.0003333 ± 3.5e-05 kPa and 0.0003423 ± 3.6e-05 kPa
437.17 K | 0.0004046 ± 4.3e-05 kPa [middle of 5 runs]
439.2 K | 0.0005278 ± 5.6e-05 kPa and 0.0004968 ± 5.3e-05 kPa and 0.0004799 ± 5.1e-05 kPa
439.22 K | 0.0004689 ± 5e-05 kPa and 0.000478 ± 5.1e-05 kPa and 0.0004523 ± 4.8e-05 kPa
441.23 K | 0.0005644 ± 6e-05 kPa [middle of 5 runs]
443.16 K | 0.0006925 ± 7.3e-05 kPa and 0.0006452 ± 6.8e-05 kPa
443.17 K | 0.0006889 ± 7.3e-05 kPa and 0.0006567 ± 7e-05 kPa
445.2 K | 0.0007983 ± 8.5e-05 kPa and 0.0007787 ± 8.3e-05 kPa
445.21 K | 0.000813 ± 8.6e-05 kPa and 0.0008056 ± 8.6e-05 kPa and 0.0007574 ± 8e-05 kPa
447.24 K | 0.0009485 ± 0.0001 kPa [middle of 6 runs]

Cc1c[nH]c(=S)[nH]c1=O [5-methyl-2-thiouracil]
Conditions | vapor or sublimation pressure
413.15 K | 0.0001771 ± 1.9e-05 kPa and 0.0001698 ± 1.8e-05 kPa
415.25 K | 0.0002113 ± 2.2e-05 kPa and 0.000217 ± 2.3e-05 kPa and 0.0002102 ± 2.2e-05 kPa
417.15 K | 0.0002538 ± 2.7e-05 kPa and 0.0002498 ± 2.7e-05 kPa
417.24 K | 0.0002506 ± 2.7e-05 kPa
419.23 K | 0.0003129 ± 3.3e-05 kPa and 0.0003018 ± 3.2e-05 kPa and 0.0003131 ± 3.3e-05 kPa
421.24 K | 0.0003606 ± 3.8e-05 kPa and 0.0003744 ± 4e-05 kPa
423.16 K | 0.0004363 ± 4.6e-05 kPa and 0.0004213 ± 4.5e-05 kPa and 0.0004419 ± 4.7e-05 kPa
425.2 K | 0.0005302 ± 5.6e-05 kPa and 0.000505 ± 5.4e-05 kPa and 0.0005103 ± 5.4e-05 kPa
427.22 K | 0.0006121 ± 6.5e-05 kPa and 0.000601 ± 6.4e-05 kPa and 0.0006259 ± 6.6e-05 kPa
429.15 K | 0.0007317 ± 7.8e-05 kPa and 0.0007071 ± 7.5e-05 kPa and 0.0007522 ± 8e-05 kPa
431.22 K | 0.0008692 ± 9.2e-05 kPa and 0.0008414 ± 8.9e-05 kPa and 0.000852 ± 9e-05 kPa
433.24 K | 0.001032 ± 0.00013 kPa and 0.001018 ± 0.00012 kPa and 0.001053 ± 0.00013 kPa

O=c1cc[nH]c(=S)[nH]1 [2-thiouracil]
Conditions | vapor or sublimation pressure
421.15 K | 0.0001325 ± 1.4e-05 kPa and 0.000123 ± 1.3e-05 kPa and 0.0001236 ± 1.3e-05 kPa
423.21 K | 0.0001553 ± 1.7e-05 kPa and 0.0001548 ± 1.6e-05 kPa and 0.0001474 ± 1.6e-05 kPa
425.22 K | 0.0001891 ± 2e-05 kPa and 0.000178 ± 1.9e-05 kPa and 0.0001835 ± 1.9e-05 kPa
427.15 K | 0.0002128 ± 2.3e-05 kPa and 0.0002092 ± 2.2e-05 kPa and 0.0002223 ± 2.4e-05 kPa
429.2 K | 0.0002611 ± 2.8e-05 kPa and 0.0002488 ± 2.6e-05 kPa and 0.0002569 ± 2.7e-05 kPa
431.23 K | 0.0003061 ± 3.2e-05 kPa and 0.0002978 ± 3.2e-05 kPa and 0.0003042 ± 3.2e-05 kPa
433.16 K | 0.0003652 ± 3.9e-05 kPa and 0.0003584 ± 3.8e-05 kPa and 0.0003803 ± 4e-05 kPa
435.2 K | 0.0004422 ± 4.7e-05 kPa and 0.0004176 ± 4.4e-05 kPa and 0.0004406 ± 4.7e-05 kPa
437.24 K | 0.0005206 ± 5.5e-05 kPa and 0.0005016 ± 5.3e-05 kPa and 0.0005328 ± 5.6e-05 kPa
439.16 K | 0.0005912 ± 6.3e-05 kPa and 0.0005684 ± 6e-05 kPa and 0.0006221 ± 6.6e-05 kPa
441.22 K | 0.000693 ± 7.3e-05 kPa and 0.000706 ± 7.5e-05 kPa and 0.0006718 ± 7.1e-05 kPa
443.26 K | 0.000834 ± 8.8e-05 kPa and 0.0008404 ± 8.9e-05 kPa and 0.0008041 ± 8.5e-05 kPa
